Patent USRE37770E1, “Treatment of skin conditions by use of PPARα activators” (The Regents of the University of California, priority 1997, dated 2002)

What was measured:
[1] = tested on: Skin explants from gestational day 17 rats; assay: Light and electron microscopy of fetal rat skin explants (epidermal maturation); format: cell-based; settings: 300 μM, 48 hours
Experimental: Samples for light microscopy were fixed in modified Karnovsky's solution, plastic-embedded, and 0.5 μm sections were stained with toluidine. Samples for electron microscopy were minced into 1 mm^3 pieces, fixed in modified Karnovsky's fixative, and processed. Sections were stained with uranyl acetate and lead citrate, post-fixed in ruthenium tetroxide, and examined using a Zeiss 10A electron microscope.
Explants incubated in various media woe examined by light microscopy. The incubation di included control medium (containing no activators) and various media individually containing 300 μM clofibrate, 100 μM juvenile hormone III, 300 μM oleic acid, 30 μM linoleic acid, 50 μM farnesol, and various concentrations of 9-cis-retinoic acid, all-trans-retinoic acid, and 1,25-dihydroxy vitamin D3.
Observations were then made of the ultrastructural maturation of the outer epidermis in explants that had been incubated in the various media and then post-fixed in ruthenium tetroxide. Media identical to those of the preceding paragraph were used, excluding the retinoic acid-containing and 1,25-dihydroxy vitamin D3-containing media.

[2] = tested on: Steroid Sulfatase; assay: Steroid sulfatase activity in epidermis of treated fetal rat skin explants; format: cell-based, rats; settings: clofibrate (300 μM), juvenile hormone III (100 μ), mean of five ± SEM
Experimental: (§1) Epidermis was separated from dermis after incubation in 10 mM ethylenediamine tetraacetic acid (EDTA) in Ca^++- and Mg^++-free phosphate-buffered saline (PBS), pH 7.4, at 37° C. for 30-40 minutes. The tissues were then minced, and homogenized on ice (three times at 15 seconds each with a Polytron homogenizer, followed by sonication twice at ten seconds each at 35% power) in either PBS containing 0.1 mM phenylmethylsulfonyl fluoride (PMSF) and 0.1% Triton X-100 (for β-glucocerebrosidase) or in 10 mM Tris (PH 7.5) containing 0.15 M sucrose and 2 mM EDTA (for steroid sulfatase). β-Glucocerebrosidase activity was measured in the supernatant following centrifugation at 10,000×g for fifteen minutes at 4° C. Steroid sulfatase activity was measured in the microsomal fraction resulting from a […] centrifugation (10 minutes, 4° C.) followed by 60 minutes of 100,000×g ultracentrifugation at 4° C. Protein content was measured by conventional techniques.
Steroid sulfatase activity was measured by incubating 100 μg of microsomal protein in 0.1 M Tris containing 5.6 mM glucose (pH 7.4) with 15 μM, (^3H) dihydroepiandrosterone sulfate (DHEAS) (15 μCi) in a final volume of 1.1 mL The product, (^3H) DHEA, was extracted with benzene and an aliquot counted by scintillation spectrophotometry.
(§2) Skin explants from 17-day fetal rats were incubated for 24 or 48 hours in media individually containing clofibrate (300 μM) and juvenile hormone III […], and control media. Enzyme activity was measured and the results are presented in Table I as the mean values of five determinations±SEM (standard error of the mean). All p values are ≦0.005 compared with controls of the same time period.

[3] = tested on: Preconfluent keratinocytes; assay: Keratinocyte growth: DNA content (bis-benzimidazole fluorimetry); format: cell-based, human; settings: mean of three samples
Experimental: Preconfluent keratinocytes were treated for 48 hours with varying concentrations of clofibrate ranging from 0 (vehicle only) to 400 μM, in both low (0.03 mM) calcium and high (1.2 mM) calcium. The treated keratinocytes were harvested and sonicated, and the resulting homogenates were incubated with 1 μL/mL bis-benzimidazole for two hours in the dark. DNA content was quantified by reading the samples on a spectrofluorimeter. Each value in the table is a mean of three samples.

[4] = tested on: β-Glucocerebrosidase; assay: β-Glucocerebrosidase activity in epidermis of treated fetal rat skin explants; format: cell-based, rats; settings: clofibrate (300 μM), juvenile hormone III (100 μ), mean of five ± SEM
Experimental: as §1
β-Glucocerebrosidase) activity was assayed using the synthetic substrate 4-methylumbelliferyl β-D-glucoside (4-MUG). The assays were performed in 5 mM sodium taurocholate in citrate-phosphate buffer (pH 5.6) with 0.5 mM 4-MUG for sixty minutes at 37° C., with a final assay volume of 100 μL, and protein concentration of 1-2 mg/mL. The reaction was terminated with 2 mL of carbonate-bicarbonate buffer (pH 10.5). The fluorescence was then measured at […] (excitation) and 450 λ (emission) and compared with a standard 4-methylumbelliferone (4-MU) curve.
as §2

[5] = tested on: transglutaminase protein; assay: Transglutaminase protein level in keratinocytes by Western blotting; format: cell-based, Human; settings: low calcium (0.03 mM), 24 hours
Experimental: Protein concentration was assessed by protein electrophoresis and Western blotting. Cells were lysed is 2% SDS and the lysate sonicated. Protein determinations were made by use of a Bicinchoninic add protein assay (Pierce Chemical Company, Rockford, Ill. USA). Following protein determination, equal amounts at protein (50 μg) were separated by electrophoresis an 7.5% polyacrylamide gels and electroblotted onto polyvinylidene […] membranes (0.2-μ, obtained from Bio-Rad Laboratories Hercules, Calif., USA). Involucrin protein was detected by incubation over-night at 4° C. C. with a polyclonal rabbit anti-human involucrin antibody (1:1000 dilution). The involucrin-specific bands on the autoradiograms were quantitated by densitometry by densitometry. Transglutaminase protein expression was measured in a similar […], using stacking, sample and running buffers containing 4 M urea, and the gels following electrophoresis were washed in 4 M urea, 25 mM TRIS-HCl, pH 7.4, 7.5 mM NaCl, 0.1 mM dithiothreitol (DTT), and 2 mM ethylenediamine tetraacetic acid for 90 minutes prior to electoblotting, allowing the transglutaminase to be detected by antibody. Specific bands on the autoradiograms were quantified by densitometry. Levels of involucrin and transglutaminase protein were measured in keratinocytes incubated in low calcium (0.03 mM) and treated with the test compounds for 24 hours. The are shown in the bar graph of FIG. 17a, where the test compounds are compared with the vehicle alone (control) and cholesterol, using the same bar indications as in FIGS 14 through 16. […] Cholesterol had no effect.

[6] = tested on: keratinocytes; assay: Rate of DNA synthesis (3H-thymidine incorporation) in keratinocytes; format: cell-based, Human; settings: 10 μM, 24 hours, low calcium (0.03 mM); 16-hour 3H-thymidine period
Experimental: The rate of DNA synthesis was determined by measuring the incorporation of ^3H-thymidine into cellular DNA after 16 hours of incubation with 2 μCi^3H-thymidine per mL of media (110 Ci/mmol methyl-1′,2′-^3H-thymidine (Amersham Laboratories, Arlington Heights, Ill. USA). The cells were then solubilized in 1N NaOH, and the radioactivity in the washed TCA precipitate was quantitated by scintillation spectroscopy.
Using the procedures set forth in the Materials and Methods section above, 25-hydroxycholesterol (10 μM) and 22(R)-hydroxycholesterol (10 μM, were compared with cholesterol (10 μM) and the vehicle alone control), with treatment for 24 hours under low calcium (0.03 mM) condition. The results are shown in the bar graph of FIG. 19.

| Structure (SMILES) | light microscopy of the epidermis [1] | Steroid Sulfatase Activity ([2]; 24-Hour Incubation) [pmol/h/mg] | Steroid Sulfatase Activity ([2]; 48-Hour Incubation) [pmol/h/mg] | DNA Content After 48 Hours ([3]; Clofibrate 50 μM) [μg/dish] | DNA Content After 48 Hours ([3]; Clofibrate 200 μM) [μg/dish] | DNA Content After 48 Hours ([3]; Clofibrate 400 μM) [μg/dish] | β-Glucocerebrosidase Activity ([4]; 24-Hour Incubation) [nmol/min/mg] | β-Glucocerebrosidase Activity ([4]; 48-Hour Incubation) [nmol/min/mg] | TG'ase protein level relative to the control [5] | rate of DNA synthesis [6] |
| --- | --- | --- | --- | --- | --- | --- | --- | --- | --- | --- |
| CCOC(=O)C(C)(C)Oc1ccc(Cl)cc1 [clofibrate, 2-(4-chlorophenoxy)-2-methylpropanoic acid ethyl ester] | had both a multi-layered stratum granulosum and a stratum corneum | 13.90 ± 1.10 | 22.51 ± 2.60 | 14.9 ± 1.5 | 12.9 ± 1.1 | 11.0 ± 1.3 | 2.97 ± 0.30 | 5.35 ± 0.89 | – | – |
| C[C@H](CCCC(C)(C)O)[C@H]1CC[C@H]2[C@@H]3CC=C4C[C@@H](O)CC[C@]4(C)[C@H]3CC[C@]12C [25-hydroxycholesterol] | – | – | – | – | – | – | – | – | approximately 1.6 fold | 50 % of control |
